Counter-ions that a name gives are not always drawn. Like-named read-outs stand apart in the source and are kept apart here.

The target of experiment [1] is muscarinic acetylcholine receptors. Briefly: inhibition of specific binding of ^3 H-Oxotremorine-M (^3 H-Oxo), fresh rat cortex. On the set-up: species or system rat (male Wistar). The settings on record: ^3 H-Oxotremorine 1.0 nM, 30 min at 25° C, pH 7.4. From the text: The pharmacological properties of the compounds of the invention can be illustrated by determining their capability to inhibit the specific binding of ^3 H-Oxotremorine-M (^3 H-Oxo). Birdsdall N. J. M., Hulme E. C., and Burgen A. S. V. (1980). "The Character of Muscarinic Receptors in Different Regions of the Rat Brain". Proc. Roy. Soc. London (Series B) 207,1.
^3 H-Oxo labels muscarinic receptor in the CNS (with a preference for agonist domains of the receptors). Three different sites are labelled by ^3 H-Oxo. […] Using the present experimental conditions only the high and medium affinity sites are determined.
The inhibitory effects of compounds on ^3 H-Oxo binding reflects the affinity for muscarinic acetylcholine receptors.
All preparations are performed at 0-4° C. unless otherwise indicated. Fresh cortex (0.1-1 g) from male Wistar rats (150-250 g) is homogenized for 5-10 s in 10 ml 20 mM Hepes pH: 7.4, with an Ultra-Turrax homogenizer. The homogenizer is rinsed with 10 ml of buffer and the combined suspension centrifuged for 15 min. at 40,000×g. The pellet is washed three times with buffer. In each step the pellet is homogenized as before in 2×10 ml of buffer and centrifuged for 10 min. at 40,000×g.
The final pellet is homogenized in 20 mM Hepes pH: 7.4 (100 ml per g of original tissue) and used for binding assay. Aliquots of 0.5 ml is added 25 μl of test solution and 25 μl of ^3 H-Oxotremorine (1.0 nM, final concentration) mixed and incubated for 30 min. at 25° C. Non-specific is determined in triplicate using arecoline (1 μg/ml, final concentration) as the test substance. After incubation samples are added 5 ml of ice-cold buffer and poured directly onto Whatman GF/C glass fiber filters under suction and immediately washed 2 times with 5 ml of ice-cold buffer. The amount of radioactivity on the filters are determined by conventional liquid scintillation counting. Specific binding is total binding minus non specific binding.
Test substances are dissolved in 10 ml water (if necessary heated on a steambath for less than 5 min.) at a concentration of 2.2 mg/ml. 25-75% inhibition of specific binding must be obtained before calculation of IC50.
The test value will be given as IC50 (the concentration (nM) of the test substance which inhibits the specific binding of ^3 H-Oxo by 50%) .
(§1) IC50 =(applied test substance concentration) x(Cx /Co
(§2) where Co is specific binding in control assays and Cx is the specific binding in the test assay. (The calculations assume normal mass-action kinetics).

The target of experiment [2] is T1, subtype of muscarinic receptors (M1-site, pirenzepine sensitive site), rat cerebral cortex membranes (Rattus norvegicus, UniProt P08482).
T1 construct: Fresh cortex (0.1-1 g) from male Wistar rats (150-200 g) is homogenized; from tissue; host or cells: fresh cerebral cortex membranes of male Wistar rats
T1 sequence (P08482 1-460): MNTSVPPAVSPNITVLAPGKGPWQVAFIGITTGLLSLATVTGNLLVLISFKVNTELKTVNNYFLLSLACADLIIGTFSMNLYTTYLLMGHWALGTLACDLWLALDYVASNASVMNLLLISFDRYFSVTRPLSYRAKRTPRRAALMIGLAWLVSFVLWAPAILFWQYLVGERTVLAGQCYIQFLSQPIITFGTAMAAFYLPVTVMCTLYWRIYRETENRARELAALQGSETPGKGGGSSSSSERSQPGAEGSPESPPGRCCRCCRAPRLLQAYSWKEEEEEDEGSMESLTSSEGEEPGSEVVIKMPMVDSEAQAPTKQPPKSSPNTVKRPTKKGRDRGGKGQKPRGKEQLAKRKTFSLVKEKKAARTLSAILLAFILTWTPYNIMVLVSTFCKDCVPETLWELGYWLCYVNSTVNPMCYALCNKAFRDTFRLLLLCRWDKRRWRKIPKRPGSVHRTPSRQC
Briefly: inhibition of ^3 H-PRZ (pirenzepine, [N-methyl-^3 H]) binding to rat cerebral cortex membranes. More on the design: species or system rat (male Wistar). Here is the method: Furthermore, the pharmacological properties of the compounds of the invention can also be illustrated by determining their capability to inhibit ^3 H-PRZ (pirenzepine, [N-methyl-^3 H]) binding to rat cerebral cortex membranes. Pirenzepine binds selectively to subtype of muscarinic receptors. Historically the type is named the M1 -site, whereas pirenzepine sensitive site would be more appropriate.
All preparations are performed at 0-4° C. unless otherwise indicated. Fresh cortex (0.1-1 g) from male Wistar rats (150-200 g) is homogenized for 5-10 s. in 10 ml 20 mM Hepes pH: 7.4, with an Ultra-Turraxhomogenizer. The homogenizer is rinsed with 2×10 ml of buffer and the combined suspension centrifuged for 15 min at 40,000×g. The pellet is washed three times with buffer. In each step the pellet is homogenized as before in 3×10 ml of buffer and centrifuged for 10 min at 40,000×g.
The final pellet is homogenized in 20 mM Hepes pH: 7.4 (100 ml per g of original tissue) and used for binding assay. Aliquots of 0.5 ml is added 20 μl of test solution and 25 μl of ^3 H-Pirenzepine (1.0 nM, final conc.), mixed and incubated for 60 min at 20° C. Non-specificbinding is determined in triplicate using atropine (1 μg/ml, final conc.) as the test substance. After incubation samples are added 5 ml of ice-cold buffer and poured directly onto Whatman GF/C glass fibre filters under suction and immediately washed 2 times with 5 ml of ice-cold buffer. The amount of radioactivity on the filters are determined by conventional liquid scintillation counting. Specific binding is total binding minus non-specific binding.
Test substances are dissolved in 10 ml water, at a concentration of 0.22 mg/ml. 25-75% inhibition of specific binding must be obtained before calculation of IC50.
The test value will be given as IC50 (the concentration (nM) of the test substance which inhibits the specific binding of ^3 H-PRZ by 50%) .
as §1, §2

The target of experiment [3] is muscarinic receptor in the CNS. The settings on record: read-out: affinity of site labelled by ^3 H-Oxo, cited from earlier work.
A further experiment relates to M1-sites. The settings on record: cited from earlier work.
For a further experiment, the system named is M2-sites. The settings on record: cited from earlier work.
[4] abbreviates: ^3 H-Pirenzepine 1.0 nM, rat cortex, 60 min at 20° C, pH 7.4, read-out: ^3 H-PRZ IC50.

Regarding `CCCSc1nsnc1C12CN3CC1C2C3` [Compound 2, 1-(3-Propylthio-1,2,5-thiadiazol-4-yl)-4-azatricyclo[2.2.1.0^2,6]heptane, oxalate], the results for the IC50 in experiment [1] and in experiment [2] were 4.3 nM and 100 nM, respectively.

For `FC(F)(F)CCSc1nsnc1C12CN3CC1C2C3` [Compound 3, 1-(3,3,3-Trifluoropropylthio-1,2,5-thiadiazol-4-yl)-4-azatricyclo[2.2.1.0^2,6]heptane, oxalate], the IC50 (in general, the concentration at which inhibition is half-maximal) came out at 14 nM in experiment [1] and 245 nM in experiment [2] (setting [4]).

With `N#Cc1ccc(CSc2nsnc2C23CN4CC2C3C4)cc1` [Compound 4, 1-[3-(4-Cyanobenzylthio)-1,2,5-thiadiazol-4-yl]-4-azatricyclo[2.2.1.0^2,6]heptane, oxalate], the values for the IC50 in experiment [1] and in experiment [2] (setting [4]) were 41 nM and 500 nM, respectively.

For the molecule `Fc1ccc(C#CCOc2nsnc2C23CN4CC2C3C4)cc1` [Compound 6, 1-(3-[3-(4-Fluorophenyl)-2-propynyl-1-oxy]-1,2,5-thiadiazol-4-yl)-4-azatricyclo[2.2.1.0^2,6]heptane, oxalate], the figures for the IC50 in experiment [1] and in experiment [2] (setting [4]) were 17 nM and 93 nM, respectively.

As for `C(#Cc1ccccc1)COc1nsnc1C12CN3CC1C2C3` [Compound 7, 1-[3-(3-Phenyl-2-propynyl-1-oxy)-1,2,5-thiadiazol-4-yl]-4-azatricyclo[2.2.1.0^2,6]heptane, oxalate], the IC50 in experiment [1] turned out to be 26 nM; in experiment [2] (setting [4]), 183 nM.

For the molecule `C(#Cc1ccsc1)COc1nsnc1C12CN3CC1C2C3` [Compound 8, 1-(3-[3-(3-Thienyl)-2-propyn-1-yloxy]-1,2,5-thiadiazol-4-yl)-4-azatricyclo[2.2.1.0^2,6]heptane, oxalate], the results for the IC50 in experiment [1] and in experiment [2] (setting [4]) were 8.7 nM and 180 nM, respectively.

As to `C(#Cc1cccs1)COc1nsnc1C12CN3CC1C2C3` [Compound 9, 1-(3-[3-(2-Thienyl)-2-propyn-1-yloxy]-1,2,5-thiadiazol-4-yl)-4-azatricyclo[2.2.1.0^2,6]heptane, oxalate], the IC50 was 15 nM in experiment [1] and 284 nM in experiment [2] (setting [4]).

Regarding `COc1cccc(C#CCOc2nsnc2C23CN4CC2C3C4)c1` [Compound 10, 1-(3-[3-(3-Methoxyphenyl)-2-propyn-1-yloxy]-1,2,5-thiadiazol-4-yl)-4-azatricyclo[2.2.1.0^2,6]heptane, hydrochloride], the IC50 in experiment [1] was 25 nM; in experiment [2] (setting [4]), 326 nM.

In the case of `C(#Cc1cccnc1)COc1nsnc1C12CN3CC1C2C3` [Compound 11, 1-(3-[3-(3-Pyridyl)-2-propyn-1-yloxy]-1,2,5-thiadiazol-4-yl)-4-azatricyclo[2.2.1.0^2,6]heptane, oxalate], the IC50 in experiment [1] was 6 nM; in experiment [2] (setting [4]), 400 nM.

Consider `C[N+](C)(C)CC#CCN1CCCC1=O` [^3 H-Oxo, ^3 H-Oxotremorine-M], for which the Kd in experiment [3] (first (high affinity) site) was 1.8 nM; in experiment [3] (second (medium affinity) site), 20 nM; in experiment [3] (third site, not determined under the present conditions), 3000 nM.

For the molecule `CN1CCN(CC(=O)N2c3ccccc3C(=O)Nc3cccnc32)CC1` [pirenzepine], in the experiment with M1-sites, the “selectivity for M1-sites” value is “selective for M1 -sites”. Also, the “interaction with M2-sites” value in the experiment with M2-sites is “also interact with M2 -sites”.
